Test: photoluminescence quantum yield (fraction); solvent given as SMILES

CC(C)(C)c1ccc(-n2c(-c3ccc(N(c4ccc(-c5ccc(N(c6ccc(-c7nc8c9ccccc9c9ccccc9c8n7-c7ccc(C(C)(C)C)cc7)cc6)c6ccc(-c7nc8c9ccccc9c9ccccc9c8n7-c7ccc(C(C)(C)C)cc7)cc6)cc5)cc4)c4ccc(-c5nc6c7ccccc7c7ccccc7c6n5-c5ccc(C(C)(C)C)cc5)cc4)cc3)nc3c4ccccc4c4ccccc4c32)cc1
photoluminescence quantum yield (in ClCCl): 0.451

CC1=CC(/C=C/c2ccc3ccc4cccc5ccc2c3c45)=[N+]2C1=C(c1ccccc1)c1c(C)cc(/C=C/c3ccc4ccc5cccc6ccc3c4c56)n1[B-]2(F)F
photoluminescence quantum yield (in CC1CCCO1): 0.8

F[B-]1(F)n2c(Cl)c(Cl)c(Br)c2C(Oc2ccccc2)=C2C(Br)=C(Cl)C(Cl)=[N+]21
photoluminescence quantum yield (in ClCCl): 0.05

CN(C)c1ccc2c(c1)Cc1ccccc1-2
photoluminescence quantum yield (in C1CCOC1): 0.39 | photoluminescence quantum yield (in C1COCCO1): 0.38 | photoluminescence quantum yield (in CC(=O)N(C)C): 0.4 | photoluminescence quantum yield (in CCCCCC): 0.25 | photoluminescence quantum yield (in CCCCCCO): 0.22 | photoluminescence quantum yield (in CCCCCO): 0.19 | photoluminescence quantum yield (in CCCCO): 0.19 | photoluminescence quantum yield (in CCCO): 0.21 | photoluminescence quantum yield (in CCO): 0.2 | photoluminescence quantum yield (in CCOC(C)=O): 0.4 | photoluminescence quantum yield (in CCOCC): 0.31 | photoluminescence quantum yield (in CO): 0.2 | photoluminescence quantum yield (in CS(C)=O): 0.42 | photoluminescence quantum yield (in O): 0.12 | photoluminescence quantum yield (in OC1CCCCC1): 0.22

O=S(=O)([O-])c1ccccc1/C=C/c1ccc(-c2nnc(-c3ccc(/C=C/c4ccccc4S(=O)(=O)[O-])cc3)o2)cc1
photoluminescence quantum yield (in C1CCOC1): 0.22 | photoluminescence quantum yield (in CC(C)=O): 0.17 | photoluminescence quantum yield (in CN(C)C=O): 0.75

Cc1ccccc1CN(Cc1ccccc1C)c1nc(C#N)c(N(Cc2ccccc2C)Cc2ccccc2C)nc1C#N
photoluminescence quantum yield (in ClC(Cl)Cl): 0.73

O=C(c1ccc(C(=C(c2ccccc2)c2ccccc2)c2ccccc2)cc1)c1ccc(-n2c3ccccc3c3ccccc32)cc1
photoluminescence quantum yield (in C1CCOC1): 0.208

Cc1nc2c(ccc3ccc(O)cc32)oc1=O
photoluminescence quantum yield (in c1ccccc1): 0.358

O=C1C(=c2c(=O)c3c4ccccc4cc4cc5ccccc5c2c43)C(=O)c2ccccc21
photoluminescence quantum yield (in C1CCOC1): 0.235 | photoluminescence quantum yield (in CC#N): 0.09 | photoluminescence quantum yield (in CCCCCC): 0.292 | photoluminescence quantum yield (in Cc1ccccc1): 0.268 | photoluminescence quantum yield (in ClCCl): 0.193

F[Si](c1ccccc1)(c1ccccc1)c1c2ccccc2cc2ccccc12
photoluminescence quantum yield (in C1CCOC1): 0.86 | photoluminescence quantum yield (in ClC(Cl)Cl): 0.52

CCCCCc1ccc(-c2ccc(C#Cc3cc(C#Cc4ccc(-c5ccc(CCCCC)cc5)cc4)c4ccc5c(C(=O)c6ccccc6)cc(C#Cc6ccc(-c7ccc(CCCCC)cc7)cc6)c6ccc3c4c65)cc2)cc1
photoluminescence quantum yield (in ClCCl): 0.51

CCCCC(CC)COc1ccc2nc(-c3ccc(-c4ccc(N(C)C)cc4)s3)sc2c1 (stereo not drawn)
photoluminescence quantum yield (in ClCCl): 0.94

CCC1=C(C2=C(C3=C(CC)S(=O)(=O)c4cc(-c5ccc(C(C)=O)s5)ccc43)C(F)(F)C(F)(F)C2(F)F)c2ccc(-c3ccc(C(C)=O)s3)cc2S1(=O)=O
photoluminescence quantum yield (in C1COCCO1): 0

COc1ccc(/C=C/c2ccc(-c3ccc(C)cn3)nc2)cc1
photoluminescence quantum yield (in CC#N): 0.28

CCCCCCc1cc2c(s1)-c1cc3c(cc1NB2c1ccccc1)-c1sc(CCCCCC)cc1B(c1ccccc1)N3
photoluminescence quantum yield (in ClCCl): 0.2

CN(C)c1ccc(C(=Cc2ccc(C#N)cc2)c2ccc(N(C)C)cc2)cc1
photoluminescence quantum yield (in C1CCOC1): 0.056

c1ccc(C2=C(c3ccccc3)c3cccc4c5c(cc(c34)O2)=NC2CCCCC2N=5)cc1 (stereo not drawn)
photoluminescence quantum yield (in ClCCl): 0.52

N#Cc1ccc2c(c1)CCc1nc(-c3ccc([N+](=O)[O-])cc3)c3c(c1-2)CCc1cc(C#N)ccc1-3
photoluminescence quantum yield (in C1CCOC1): 0.043 | photoluminescence quantum yield (in CC#N): 0.039 | photoluminescence quantum yield (in CCCCCC): 0.3 | photoluminescence quantum yield (in CCOC(C)=O): 0.015 | photoluminescence quantum yield (in CO): 0.01 | photoluminescence quantum yield (in CS(C)=O): 0.073 | photoluminescence quantum yield (in Cc1ccccc1): 0.014 | photoluminescence quantum yield (in ClCCl): 0.292

CC1(C)c2cccc(-c3nc(-c4ccccc4)nc(-c4ccccc4)n3)c2Oc2c(N3c4ccccc4Sc4ccccc43)cccc21
photoluminescence quantum yield (in Cc1ccccc1): 0.077

CC[N+](CC)=c1ccc2c(-c3ccccc3C(=O)O)c3cc4c(-c5ccccc5C(=O)O)c5ccc(=[N+](CC)CC)cc-5oc4cc3oc-2c1
photoluminescence quantum yield (in ClC(Cl)Cl): 0.17

Source: the Deep4Chem optical property database
